Biological target: T1, IR84a (Drosophila melanogaster, UniProt Q9VIA5)
T1 sequence (Q9VIA5 25-644): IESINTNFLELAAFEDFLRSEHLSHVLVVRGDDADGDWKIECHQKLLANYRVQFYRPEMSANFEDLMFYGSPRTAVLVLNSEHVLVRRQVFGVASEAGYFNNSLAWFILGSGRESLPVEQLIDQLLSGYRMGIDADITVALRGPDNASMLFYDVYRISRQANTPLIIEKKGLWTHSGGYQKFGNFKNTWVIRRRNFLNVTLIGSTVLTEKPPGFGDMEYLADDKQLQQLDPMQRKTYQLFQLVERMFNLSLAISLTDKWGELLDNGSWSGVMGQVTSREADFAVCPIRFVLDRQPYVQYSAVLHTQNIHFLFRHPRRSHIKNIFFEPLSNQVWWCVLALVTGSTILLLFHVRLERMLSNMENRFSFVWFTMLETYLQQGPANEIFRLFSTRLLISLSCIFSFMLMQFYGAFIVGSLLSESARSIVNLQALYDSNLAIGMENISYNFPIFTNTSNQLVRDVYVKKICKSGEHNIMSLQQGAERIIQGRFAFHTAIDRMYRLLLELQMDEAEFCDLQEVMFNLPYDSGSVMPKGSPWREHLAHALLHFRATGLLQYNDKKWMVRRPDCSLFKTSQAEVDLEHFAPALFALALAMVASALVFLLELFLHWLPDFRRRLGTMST
T1 sequence (Q9W365 18-936 partner): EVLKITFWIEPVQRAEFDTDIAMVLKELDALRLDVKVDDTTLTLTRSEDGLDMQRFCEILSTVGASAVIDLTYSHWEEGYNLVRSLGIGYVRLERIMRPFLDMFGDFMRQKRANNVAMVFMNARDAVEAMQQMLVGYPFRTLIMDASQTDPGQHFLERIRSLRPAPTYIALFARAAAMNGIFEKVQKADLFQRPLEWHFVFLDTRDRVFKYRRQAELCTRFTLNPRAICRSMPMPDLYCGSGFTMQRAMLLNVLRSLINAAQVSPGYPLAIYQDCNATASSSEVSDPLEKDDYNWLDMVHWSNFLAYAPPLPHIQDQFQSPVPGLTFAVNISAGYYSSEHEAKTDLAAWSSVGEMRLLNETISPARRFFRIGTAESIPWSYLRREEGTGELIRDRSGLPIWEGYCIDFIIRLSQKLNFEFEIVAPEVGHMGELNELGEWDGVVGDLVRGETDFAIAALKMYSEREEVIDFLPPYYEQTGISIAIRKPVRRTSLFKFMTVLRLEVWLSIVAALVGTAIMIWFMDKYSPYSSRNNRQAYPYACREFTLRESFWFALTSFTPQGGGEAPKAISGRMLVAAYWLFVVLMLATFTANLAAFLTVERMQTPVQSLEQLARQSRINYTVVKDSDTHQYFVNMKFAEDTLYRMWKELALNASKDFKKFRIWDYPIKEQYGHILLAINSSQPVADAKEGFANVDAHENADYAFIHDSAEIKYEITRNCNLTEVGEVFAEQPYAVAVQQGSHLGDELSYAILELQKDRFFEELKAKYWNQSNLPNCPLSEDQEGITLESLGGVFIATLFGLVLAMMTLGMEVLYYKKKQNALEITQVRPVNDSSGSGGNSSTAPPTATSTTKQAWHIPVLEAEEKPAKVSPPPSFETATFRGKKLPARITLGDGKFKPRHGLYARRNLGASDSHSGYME
Assay type: cell-based

IC50: 39 ± 9 µM
SMILES: CC12CC3CC(C)(C1)CC(N)(C3)C2 [memantine]

From PMC3050028 (Neuron, 2011)
